Source: patent US10195156B2, “Compounds and compositions for intracellular delivery of agents” (ModernaTX, Inc., priority 2015, dated 2019)

Assays:
IP-10 = test: Cytokine production induced by sample formulations: IP-10; type: in vivo; details: mice, i.v., 0.5 mpk, 6 hours; for IP-10: Table 20-4, formula (20-I), in pg/mL (unit assumed)
In short: (§1)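 Cytokine levels were quantified at 6 hours in mice given the nanoparticle compositions i.v. at 0.5 mpk. MC3 standard formulation and PBS served as comparators.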

[1] = test system: luciferase (Luc) mRNA expression; test: Expression of Luc induced by sample formulations, whole-body bioluminescence after intravenous administration; type: in vivo; details: Table 20-2, mice, i.v., 0.5 mg/kg
In short: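 Read-out is whole-body bioluminescence at 3, 6 and 24 h after a single intravenous dose of 0.5 mg/kg Luc mRNA in nanoparticle formulations. Groups of n=6 mice; PBS and standard MC3 formulation as references.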

[2] = Particle size and polydispersity index of nanoparticle compositions (Zetasizer Nano ZS); type: physicochemical; details: for PDI / Size (nm): Table 20-1, rows without footnote mark; for particle size, rank within the named table (in words): comparison amongst compositions
In short: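 Values are size and PDI readings from a Zetasizer Nano ZS. Measurements are taken in 1×PBS; zeta potential, by contrast, uses 15 mM PBS.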

[3] = test system: modified luciferase expression; test: Expression of Luc in different organs (liver, lung, spleen, femur) 6 hours after intravenous administration; type: in vivo; details: Table 20-3, mice, i.v., 0.5 mpk
Procedure: The efficacy of the nanoparticle compositions presented in Tables 1, 1a, 17-1, 19-1, 20-1 and 21-1 was further evaluated by measuring the expression of modified luciferase in the liver, lung, spleen, and femur upon administration of a given composition. Formulations were administered intravenously to mice (n=3) at a dosage of 0.5 mpk and bioluminescence measured after 6 hours. The standard MC3 formulation and a PBS control were also tested.

[4] = Encapsulation efficiency of RNA (QUANT-IT RIBOGREEN RNA assay); type: physicochemical; details: Table 20-1; rows without footnote mark
In short: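 RiboGreen fluorescence (ex ~480, em ~520 nm) measured after 15 min at 37 °C on samples at ~5 μg/mL in TE, pH 7.5, ± 2% Triton X-100 solution. After blank subtraction, free RNA is given as intact-sample signal divided by disrupted-sample signal.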

IL-6 = test: Cytokine production induced by sample formulations: IL-6; type: in vivo; details: Table 20-4, formula (20-I); mice, i.v., 0.5 mpk, 6 hours; in pg/mL (unit assumed)
In short: as §1

[5] = pKa of nanoparticle compositions; type: physicochemical; details: Table 20-1; rows without footnote mark

CCCCCCCCCCCCCCN(CCCCCCCCCCCCCC)CCN(CCCO)CCCCCCCCCCCC [Compound 20-11, 3-((2-(Ditetradecylamino)ethyl)(dodecyl)amino)propan-1-ol]
IP-10 (IP-10): 1700.5 | Total Flux 3 hours [1]: 1.44E+09 | Total Flux 6 hours [1]: 8.83E+08 | Total Flux 24 hours [1]: 2.40E+07 | PDI [2]: 0.118 | Size (nm) [2]: 96.1 nm | Total Flux Liver [3]: 3.60E+08 | Total Flux Lung [3]: 5.86E+05 | Total Flux Spleen [3]: 9.24E+06 | EE (%) [4]: 97.5% | IL-6 (IL-6): 46.9 | pKa [5]: 5.38

CCCCCCCCCCCCCCN(CCO)CCN(CCCCCCCCCCCCCC)CCCCCCCCCCCCCC [Compound 20-12, 2-((2-(Ditetradecylamino)ethyl)(tetradecyl)amino)ethan-1-ol]
IP-10 (IP-10): 3864.5 | Total Flux 3 hours [1]: 1.57E+09 | Total Flux 6 hours [1]: 1.84E+09 | Total Flux 24 hours [1]: 1.24E+08 | PDI [2]: 0.217 | Size (nm) [2]: 147.1 nm | particle size, rank within the named table (in words) [2]: largest particles | Total Flux Femur [3]: 1.37E+06 | Total Flux Liver [3]: 3.08E+08 | Total Flux Lung [3]: 3.58E+06 | Total Flux Spleen [3]: 6.15E+07 | EE (%) [4]: 82.3% | IL-6 (IL-6): 445.7 | pKa [5]: 6.58

CCCCC/C=C\C/C=C\CCCCCCCCN(CCCCCCCC/C=C\C/C=C\CCCCC)CCN(CCO)CCCCCCCCCCCC [Compound 20-13, 2-((2-(Di((9Z,12Z)-octadeca-9,12-dien-1-yl)amino)ethyl)(dodecyl)amino)ethan-1-ol]
IP-10 (IP-10): 70.0 | Total Flux 3 hours [1]: 7.01E+08 | Total Flux 6 hours [1]: 1.82E+09 | Total Flux 24 hours [1]: 7.39E+07 | PDI [2]: 0.057 | Size (nm) [2]: 74.3 nm | Total Flux Femur [3]: 3.11E+05 | Total Flux Liver [3]: 1.65E+08 | Total Flux Lung [3]: 9.09E+05 | Total Flux Spleen [3]: 1.04E+07 | EE (%) [4]: 97.7% | IL-6 (IL-6): 87.8 | pKa [5]: 5.83

CCCCC/C=C\C/C=C\CCCCCCCCN(CCO)CCN(CCCCCCCC/C=C\C/C=C\CCCCC)CCCCCCCC/C=C\C/C=C\CCCCC [Compound 20-14, 2-((2-(Di((9Z,12Z)-octadeca-9,12-dien-1-yl)amino)ethyl)((9Z,12Z)-octadeca-9,12-dien-1-yl)amino)ethan-1-ol]
IP-10 (IP-10): 8436.6 | IP-10 induction, rank or comparison with IL-6 (in words) (IP-10): highest | Total Flux 3 hours [1]: 1.76E+09 | Total Flux 6 hours [1]: 4.07E+08 | Total Flux 24 hours [1]: 8.10E+07 | PDI [2]: 0.215 | Size (nm) [2]: 124.0 nm | Total Flux Liver [3]: 5.22E+07 | Total Flux Lung [3]: 1.08E+05 | Total Flux Spleen [3]: 7.03E+05 | EE (%) [4]: 94.5% | IL-6 (IL-6): 311.1 | pKa [5]: 5.89

CCCCCCCCCCCCN(CCCCCCCCCCCC)CCN(CCO)CCCCCC [Compound 20-15, 2-((2-(Didodecylamino)ethyl)(hexyl)amino)ethan-1-ol]
IP-10 (IP-10): 136.3 | Total Flux 3 hours [1]: 3.36E+08 | Total Flux 6 hours [1]: 2.25E+08 | Total Flux 24 hours [1]: 2.08E+07 | PDI [2]: 0.118 | Size (nm) [2]: 67.4 nm | particle size, rank within the named table (in words) [2]: smallest particles | Total Flux Liver [3]: 6.74E+07 | Total Flux Lung [3]: 5.56E+05 | Total Flux Spleen [3]: 1.86E+06 | EE (%) [4]: 97.4% | IL-6 (IL-6): 49.4 | pKa [5]: 6.48

CCCCCCCCCCCCN(CCCCCCCCCCCC)CCN(CCO)CCCCCCCCC [Compound 20-17, 2-((2-(didodecylamino)ethyl)(nonyl)amino)ethan-1-ol]
IP-10 (IP-10): 1207.0 | Total Flux 3 hours [1]: 1.97E+07 | Total Flux 6 hours [1]: 1.44E+07 | Total Flux 24 hours [1]: 1.54E+06 | PDI [2]: 0.092 | Size (nm) [2]: 71.2 nm | Total Flux Liver [3]: 2.99E+06 | Total Flux Lung [3]: 2.79E+04 | Total Flux Spleen [3]: 9.56E+04 | EE (%) [4]: 98.2% | IL-6 (IL-6): 6.3 | pKa [5]: 6.25

CCCCCCCCCCCCN(CCO)CCN(CCCCCCCCC)CCCCCCCCC [Compound 20-18, 2-((2-(Dinonylamino)ethyl)(dodecyl)amino)ethan-1-ol]
IP-10 (IP-10): 572.7 | Total Flux 3 hours [1]: 5.80E+09 | Total Flux 6 hours [1]: 6.48E+09 | Total Flux 24 hours [1]: 1.54E+09 | PDI [2]: 0.150 | Size (nm) [2]: 70.1 nm | Total Flux Femur [3]: 3.78E+05 | Total Flux Liver [3]: 4.83E+08 | Total Flux Lung [3]: 1.84E+06 | Total Flux Spleen [3]: 2.36E+06 | EE (%) [4]: 91.1% | IL-6 (IL-6): 102 | pKa [5]: 6.31

CCCCCCCCCCCCN(CCCO)CCN(CCCCCCCCCCCC)CCCCCCCCCCCC [Compound 20-21, 3-((2-(Didodecylamino)ethyl)(dodecyl)amino)propan-1-ol]
IP-10 (IP-10): 900.4 | Total Flux 3 hours [1]: 1.43E+09 | Total Flux 6 hours [1]: 1.02E+09 | Total Flux 24 hours [1]: 1.13E+08 | PDI [2]: 0.238 | Size (nm) [2]: 78.6 nm | Total Flux Liver [3]: 1.27E+08 | Total Flux Lung [3]: 1.98E+05 | Total Flux Spleen [3]: 2.20E+06 | EE (%) [4]: 84.7% | IL-6 (IL-6): 68.4 | pKa [5]: 5.78

CCCCCCCCCCCCN(CCCCO)CCN(CCCCCCCCCCCC)CCCCCCCCCCCC [Compound 20-22, 4-((2-(Didodecylamino)ethyl)(dodecyl)amino)butan-1-ol]
IP-10 (IP-10): 810.6 | Total Flux 3 hours [1]: 4.00E+09 | Total Flux 6 hours [1]: 3.01E+09 | Total Flux 24 hours [1]: 2.20E+08 | PDI [2]: 0.146 | Size (nm) [2]: 73.8 nm | Total Flux Liver [3]: 2.88E+08 | Total Flux Lung [3]: 5.04E+05 | Total Flux Spleen [3]: 1.65E+06 | EE (%) [4]: 95.3% | IL-6 (IL-6): 118.6 | pKa [5]: 5.90

CCCCC/C=C\CCCCCN(CCO)CCN(CCCCCCCCCCCC)CCCCCCCCCCCC [Compound 20-23, (Z)-2-((2-(Didodecylamino)ethyl)(dodec-6-en-1-yl)amino)ethan-1-ol]
IP-10 (IP-10): 457.8 | Total Flux 3 hours [1]: 1.91E+09 | Total Flux 6 hours [1]: 1.42E+09 | Total Flux 24 hours [1]: 1.13E+08 | PDI [2]: 0.080 | Size (nm) [2]: 88.1 nm | Total Flux Femur [3]: 5.10E+05 | Total Flux Liver [3]: 3.06E+08 | Total Flux Lung [3]: 1.28E+06 | Total Flux Spleen [3]: 4.19E+06 | EE (%) [4]: 95.3% | IL-6 (IL-6): 236.4 | pKa [5]: 6.56

CCCCCCCCCCCCCCN(CCO)CCN(CCCCCCCCCCCC)CCCCCCCCCCCC [Compound 20-24, 2-((2-(Didodecylamino)ethyl)(tetradecyl)amino)ethan-1-ol]
IP-10 (IP-10): 1678.6 | Total Flux 3 hours [1]: 7.47E+08 | Total Flux 6 hours [1]: 1.64E+08 | Total Flux 24 hours [1]: 9.72E+06 | PDI [2]: 0.038 | Size (nm) [2]: 90.6 nm | Total Flux Liver [3]: 4.05E+07 | Total Flux Lung [3]: 1.08E+05 | Total Flux Spleen [3]: 1.11E+06 | EE (%) [4]: 96.9% | IL-6 (IL-6): 67.1 | pKa [5]: 6.06
